Here are results for eleven compounds from ChEMBL document CHEMBL1201862, “PubChem BioAssay data set” (2004).

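Cultured in 96-well plates, cells were exposed to test compound for 48 hours across five concentrations. Abbreviation: GI50, concentration required for 50% inhibition of growth.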 Calls of active or inactive are those of the source. Rule as the data show it: active = GI50 up to about 1.1 µM and inactive = higher. Where a SMILES comes first, the peptide text is derived from it. The star is where a group is joined. Boc = CC(C)(C)OC(=O)*; OSu = O=C1CCC(=O)N1O*

Some test systems named below: 786-0; A549; CCRF-CEM; HL-60; IGROV-1; KM12; MCF7; MDA-MB-231; NCI-H460; RPMI-8226; SF-268; SF-539; SK-MEL-5; SNB-19; SR; SW-620; T47D; CAKI-1; NCI-H226; TK-10.
Test in all cases: NCI tumour cell line growth inhibition, 48 h

Regarding `Cc1cccc(-c2nc(-c3cnccn3)n(Cc3ccccc3)n2)c1`, the GI50 was 52.7 µM (inactive) in the experiment with 786-0; > 100 µM (inactive) in the experiment with A549; > 100 µM (inactive) in the experiment with CCRF-CEM; > 100 µM (inactive) in the experiment on HL-60; > 100 µM (inactive) in the experiment with IGROV-1; > 100 µM (inactive) in the experiment with KM12. Moreover, the GI50 with MCF7, with MDA-MB-231, in the experiment with NCI-H460, with RPMI-8226, in the experiment with SF-268 and in the experiment with SF-539 was > 100 µM (inactive) throughout. Moreover, the GI50 with SK-MEL-5 is > 100 µM (inactive); with SNB-19, 95.1 µM (inactive); in the experiment on SR it was > 100 µM (inactive); in the experiment on SW-620, > 100 µM (inactive); in the experiment on T47D, 90.6 µM (inactive).

With `CCCCOC(=O)C1CN2C=CC=NC2=NC1(C(F)(F)F)C(F)(F)F` (stereo not drawn), the GI50 in the experiment with 786-0, in the experiment on A549, in the experiment on CAKI-1, with CCRF-CEM, in the experiment on HL-60 and in the experiment on IGROV-1 was > 100 µM (inactive) throughout. Moreover, the GI50 with KM12, in the experiment with MCF7, in the experiment with MDA-MB-231, in the experiment with NCI-H226, in the experiment with NCI-H460 and with RPMI-8226 was > 100 µM (inactive) throughout. The GI50 in the experiment with SF-268, in the experiment with SF-539, in the experiment with SK-MEL-5, with SNB-19, in the experiment on SW-620 and with T47D was > 100 µM (inactive) each time. For the same compound, the GI50 with TK-10 is > 100 µM (inactive).

Turning to `C[N+]1(CCCl)CC[N+](C)(CCCl)CC1` (stereo not drawn), the GI50 in the experiment on 786-0 was > 100 µM (inactive); in the experiment with A549, > 100 µM (inactive); in the experiment with CAKI-1, > 100 µM (inactive); in the experiment on CCRF-CEM it was > 100 µM (inactive); in the experiment on HL-60, 28.8 µM (inactive); in the experiment with IGROV-1, > 100 µM (inactive). Also, the GI50 with KM12, in the experiment on MCF7, with MDA-MB-231, in the experiment with NCI-H226, with NCI-H460 and with RPMI-8226 was > 100 µM (inactive) throughout. Moreover, the GI50 in the experiment with SF-268, in the experiment with SF-539, in the experiment with SK-MEL-5, in the experiment with SNB-19, with SW-620 and in the experiment with T47D was > 100 µM (inactive) throughout. The GI50 with TK-10 was > 100 µM (inactive).

Regarding `Cc1c2ccccc2c(C)n2c1nc1cc3ccccc3cc12`, the GI50 in the experiment on 786-0 was 0.955 µM (active); in the experiment with A549, 1.86 µM (inactive); with CAKI-1 it was 1.24 µM (inactive); in the experiment with CCRF-CEM it was 1.57 µM (inactive); in the experiment with HL-60 it was 2.5 µM (inactive); in the experiment with IGROV-1 it was 1.04 µM (active). For the same compound, the GI50 with KM12 is 1.32 µM (inactive); in the experiment with MCF7, 0.321 µM (active); in the experiment with MDA-MB-231, 1.36 µM (inactive); in the experiment on NCI-H460, 1.05 µM (active); in the experiment with RPMI-8226 it was 2.2 µM (inactive); in the experiment with SF-268, 1.34 µM (inactive). Moreover, the GI50 in the experiment on SF-539 was 1.34 µM (inactive); in the experiment on SK-MEL-5, 1.94 µM (inactive); in the experiment with SNB-19, 1.54 µM (inactive); with SR it was 0.721 µM (active); with SW-620, 1.56 µM (inactive); with T47D, 6.44 µM (inactive). Further, the GI50 with TK-10 is 2.15 µM (inactive).

As to `CS(=O)(=O)Nc1ccc(Nc2ccnc3ccc4[nH]ccc4c23)cc1`, the GI50 in the experiment with 786-0 was 9.64 µM (inactive); in the experiment with A549 it was 19.5 µM (inactive); in the experiment on CAKI-1, 27.7 µM (inactive); in the experiment with CCRF-CEM it was 4.35 µM (inactive); in the experiment with HL-60 it was 21.4 µM (inactive); with IGROV-1 it was 20 µM (inactive). Further, the GI50 in the experiment with KM12 is 11.6 µM (inactive); with MCF7, 4.89 µM (inactive); in the experiment with MDA-MB-231, 8.93 µM (inactive); with NCI-H226, 8.49 µM (inactive); in the experiment with NCI-H460, 15.2 µM (inactive); with RPMI-8226 it was 21 µM (inactive). The GI50 was 5.13 µM (inactive) in the experiment on SF-268; 11.7 µM (inactive) in the experiment with SK-MEL-5; 6.52 µM (inactive) in the experiment on SNB-19; 8.32 µM (inactive) in the experiment with SW-620; 3.77 µM (inactive) in the experiment on T47D; 30.2 µM (inactive) in the experiment with TK-10.

Take `COc1ccc2c(c1)-c1nc(=S)n(CCN(C)C)c3ccc([N+](=O)[O-])c(c13)N2`: the GI50 is 0.462 µM (active) in the experiment with 786-0; 0.515 µM (active) with A549; 1.49 µM (inactive) in the experiment on CAKI-1; 1.09 µM (active) in the experiment on CCRF-CEM; 0.832 µM (active) in the experiment on IGROV-1; 0.971 µM (active) in the experiment with KM12. Further, the GI50 in the experiment with MCF7 is 0.861 µM (active); in the experiment with MDA-MB-231, 1.23 µM (inactive); with NCI-H226, 0.973 µM (active); in the experiment on NCI-H460, 0.365 µM (active); in the experiment on RPMI-8226 it was 0.573 µM (active); in the experiment on SF-268, 0.671 µM (active). In addition, the GI50 in the experiment with SF-539 was 0.824 µM (active); with SK-MEL-5, 3.65 µM (inactive); in the experiment on SNB-19 it was 0.828 µM (active); in the experiment with SR, 0.419 µM (active); with SW-620, 0.404 µM (active); in the experiment on T47D, 4.81 µM (inactive). The GI50 in the experiment with TK-10 is 1.07 µM (active).

`CSCCC(NC(=O)Cc1ccc(C(=O)c2ccccc2)cc1)C(=O)O` (stereo not drawn): the GI50 in the experiment with 786-0, in the experiment with A549, in the experiment on CAKI-1, in the experiment on CCRF-CEM, in the experiment with HL-60 and with IGROV-1 was > 100 µM (inactive) throughout. In addition, the GI50 in the experiment with KM12, with MCF7, with MDA-MB-231, with NCI-H226, in the experiment on NCI-H460 and in the experiment with SF-268 was > 100 µM (inactive) in each case. The GI50 in the experiment on SF-539, in the experiment on SK-MEL-5, with SNB-19, in the experiment on SW-620, in the experiment with T47D and in the experiment with TK-10 was > 100 µM (inactive) in each case.

Take `N#CCCN(CCC#N)c1ccc(C(=N/c2ccc(F)cc2)/N=N/c2ccccc2)cc1`: the GI50 was > 100 µM (inactive) in the experiment with 786-0; 37.8 µM (inactive) with A549; > 100 µM (inactive) with CAKI-1; < 0.01 µM (active) with CCRF-CEM; > 100 µM (inactive) in the experiment with IGROV-1; 35.5 µM (inactive) in the experiment on KM12. The GI50 is > 100 µM (inactive) in the experiment on MCF7; 82.6 µM (inactive) in the experiment with MDA-MB-231; > 100 µM (inactive) in the experiment on NCI-H226; 60.1 µM (inactive) in the experiment on NCI-H460; > 100 µM (inactive) in the experiment with RPMI-8226; > 100 µM (inactive) with SF-268. Further, the GI50 in the experiment with SF-539 is > 100 µM (inactive); in the experiment with SK-MEL-5 it was 83.6 µM (inactive); in the experiment with SNB-19, > 100 µM (inactive); in the experiment with SR, 33 µM (inactive); with SW-620, > 100 µM (inactive); in the experiment with T47D, 15.1 µM (inactive). The GI50 in the experiment with TK-10 is > 100 µM (inactive).

As to `O=C1c2ccccc2/C(=N\c2ccc3ccccc3c2)C1(C1=C(c2ccccc2)/C(=N/c2ccc3ccccc3c2)c2ccccc21)c1ccccc1` (stereo not drawn), the GI50 is 4.8 µM (inactive) in the experiment on 786-0; 11.1 µM (inactive) in the experiment with A549; 7.53 µM (inactive) with CAKI-1; 11.2 µM (inactive) with CCRF-CEM; 4.5 µM (inactive) with HL-60; 6.34 µM (inactive) in the experiment on IGROV-1. Besides, the GI50 in the experiment with KM12 is 4.14 µM (inactive); in the experiment with MCF7, 4.05 µM (inactive); in the experiment with MDA-MB-231 it was 15.3 µM (inactive); with NCI-H226, 7.21 µM (inactive); in the experiment on NCI-H460, 3.32 µM (inactive); in the experiment on RPMI-8226 it was 3.64 µM (inactive). The GI50 with SF-268 was 4.16 µM (inactive); with SF-539 it was 6.15 µM (inactive); in the experiment with SK-MEL-5, 2.17 µM (inactive); in the experiment with SNB-19, 73.3 µM (inactive); in the experiment on SW-620, 36.6 µM (inactive); in the experiment on T47D, 5.5 µM (inactive). Further, the GI50 in the experiment on TK-10 is 45.5 µM (inactive).

`O=C1C2CCCCC2C(=O)N1n1c(-c2ccccc2)n[nH]c1=O` (stereo not drawn): the GI50 in the experiment on 786-0, with A549, with CAKI-1, with CCRF-CEM, with IGROV-1 and in the experiment on KM12 was > 100 µM (inactive) in each case. The GI50 with MCF7, in the experiment on MDA-MB-231, in the experiment with NCI-H226, in the experiment with NCI-H460, with RPMI-8226 and with SF-268 was > 100 µM (inactive) throughout. The GI50 with SF-539, in the experiment on SK-MEL-5, with SNB-19, with SR, with SW-620 and with T47D was > 100 µM (inactive) in each case. In addition, the GI50 with TK-10 is > 100 µM (inactive).

Take `CC(C)(C)OC(=O)NC(Cc1ccc(O)cc1)C(=O)NC(CCCCN)C(=O)NC(Cc1ccc(O)cc1)C(=O)NC(CCCCN)C(=O)ON1C(=O)CCC1=O` (stereo not drawn) (Boc-YKYK-OSu; configuration not given here): the GI50 with 786-0 was > 100 µM (inactive); in the experiment with A549, > 100 µM (inactive); in the experiment on CCRF-CEM, > 100 µM (inactive); in the experiment on HL-60, > 100 µM (inactive); in the experiment with IGROV-1 it was 85.3 µM (inactive); in the experiment on KM12, > 100 µM (inactive). The GI50 with MCF7, in the experiment on MDA-MB-231, in the experiment on NCI-H226, in the experiment on NCI-H460, with RPMI-8226 and in the experiment with SK-MEL-5 was > 100 µM (inactive) throughout. Moreover, the GI50 with SNB-19, with SR, in the experiment with SW-620, in the experiment on T47D and in the experiment with TK-10 was > 100 µM (inactive) in each case.
